Measurements reported in US20060024392A1, “Compositions and methods for enhancing the effectiveness of a chemotherapeutic agent” (priority 2004, published 2006).
Entries after “also recorded” stand apart in the source; their conditions may differ.

Test system: HT29 colon cancer cells
Assay: Sulforhodamine B (SRB) cell growth assay in HT29 colon cancer cells
Assay type: cell-based
Description: HT-29, a cell line derived from colorectal adenocarcinoma (ATCC, HTB 38), grows in McCoy's 5A medium (Biowhittaker, Inc. Walkersville, Md.). NCM460, a cell line derived from a normal human colon (InCell Corp. San Antonio, Tex.), grows in M3 Base media (InCell Corp. San Antonio, Tex.).
Both cell lines are kept at 37° C. and 5% CO2 atmosphere. Both media are supplemented with 10% fetal bovine serum (FBS, Biowhittaker, Inc. Walkersville, Md.).
Cells are fixed in situ by the gentle addition of 50 μl of cold 50% (w/v) TCA (final concentration, 10% TCA) and incubated for 60 minutes at 4° C. The supernatant is discarded, and the plates are washed five times with tap water and air dried. Sulforhodamine B (SRB) solution (100 μl) at 0.4% (w/v) in 1% acetic acid is added to each well, and plates are incubated for 10 minutes at room temperature. After staining, unbound dye is removed by washing five times with 1% acetic acid and the plates are air dried. Bound stain is subsequently solubilized with 100 μl 10 mM trizma base for 5 minutes, and the absorbance at wavelength of 490 nm was spectrophotometrically measured using a microplate reader Elx800 (Bio-Tek instruments, Inc.).
Cells were seeded in 96-well cluster tissue culture plates (Costar), containing 100 μl complete growth medium per well at densities of 5,000 cells per well. Incubated at 37° C. in a humidified tissue culture incubator. After 24 Hour, 100 μl complete medium containing 5 half-log dilutions of the 5FU from 2*10^−4 to 2*10^−6 M was added into each well (final concentrations are from 10^−4 to 10^−6 M). Six replicates were used for each concentration. Media containing 0.125% DMSO was used as control. After 48 hours of incubation with 5FU in medium, cell proliferation was assessed using the SRB assay.
Percentage growth (Growth%) is calculated as: [(Ti−Tz)/(C−Tz)]×100 [absorbance measurements at time zero (Tz), control growth (C), and test growth in the presence of drug at the different concentration levels (Ti)].
Similar to the method used in testing GI50 of 5FU: HT29 was plated at 5000 cells per well. […] After 48 hour treatment, cell growth was assessed using SRB assay.
The protocol was the same as described above, except cells were exposed to 5FU at concentration ranging from 10^−4 to 10^−6 M with chokeberry ARE at concentration of 1.56, 5, 15.6, 50 μg monomeric anthocyanin/ml growth media.
The protocol was the similar to Experiment 1: Cells were exposed to half-log diluted SAC at concentration ranging from 3.2 to 1000 μM for 48 hour. Media containing 0.5% filtered water was used as control.
This experiment was to determine whether the antioxidant, SAC would enhance the effect of 5FU in HT29 cells. The protocol was the same as Experiment 3, except cells were exposed to 5FU at concentration ranging from 10^−4 to 10^−6 M with SAC at concentration of 10, 100, 1000 μM.

[1] = SAC 3.2 μM, 48 hour, experiment 1
[2] = SAC 3.2 μM, 48 hour, experiment 2
[3] = SAC 10 μM, 48 hour, experiment 1
[4] = SAC 10 μM, 48 hour, experiment 2
[5] = SAC 32 μM, 48 hour, experiment 1
[6] = SAC 32 μM, 48 hour, experiment 2
[7] = SAC 100 μM, 48 hour, experiment 1
[8] = SAC 100 μM, 48 hour, experiment 2
[9] = SAC 320 μM, 48 hour, experiment 1
[10] = SAC 320 μM, 48 hour, experiment 2
[11] = SAC 1000 μM, 48 hour, experiment 1
[12] = SAC 1000 μM, 48 hour, experiment 2
[13] = Table 6 (1): SAC 1000 uM, 5FU 0
[14] = Table 6 (2): SAC 1000 uM, 5FU 0

Structure (SMILES): C=CCSC[C@H](N)C(=O)O [SAC, S-Allyl-cysteine]
- enhancement of 5FU toxicity by SAC (5FU 10^−4 to 10^−6 M with SAC 10, 100, 1000 μM): No significant enhancement; also recorded: did not inhibit HT29 cell growth or enhance 5 FU toxicity
- Growth % [1]: 101.17%
- OD [1]: 0.66
- Growth % [2]: 102.24%
- OD [2]: 0.682
- Growth % [3]: 98.37%
- OD [3]: 0.648
- Growth % [4]: 94.17%
- OD [4]: 0.646
- Growth % [5]: 92.77%
- OD [5]: 0.624
- Growth % [6]: 98.43%
- OD [6]: 0.665
- Growth % [7]: 92.77%
- OD [7]: 0.624
- Growth % [8]: 98.21%
- OD [8]: 0.664
- Growth % [9]: 81.59%
- OD [9]: 0.576
- Growth % [10]: 101.35%
- OD [10]: 0.678
- Growth % [11]: 86.95%
- OD [11]: 0.599
- Growth % [12]: 98.65%
- OD [12]: 0.666
- inhibition of HT29 cancer cells by SAC (SAC 3.2 to 1000 μM, 48 hour): did not show significant inhibition; also recorded: did not inhibit HT29 cell growth
- Growth % (Table 6 (1): SAC 10 uM, 5FU 0): 104.65%
- OD (Table 6 (1): SAC 10 uM, 5FU 0): 0.341
- Growth % (Table 6 (1): SAC 100 uM, 5FU 0): 104.19%
- OD (Table 6 (1): SAC 100 uM, 5FU 0): 0.34
- Growth % [13]: 95.35%
- OD [13]: 0.321
- Growth % (Table 6 (2): SAC 10 uM, 5FU 0): 92.41%
- OD (Table 6 (2): SAC 10 uM, 5FU 0): 0.335
- Growth % (Table 6 (2): SAC 100 uM, 5FU 0): 91.56%
- OD (Table 6 (2): SAC 100 uM, 5FU 0): 0.333
- Growth % [14]: 74.26%
- OD [14]: 0.292
